Entries after “also recorded” stand apart in the source; their conditions may differ.
Assays:
FRT cells = assay: Cytotoxicity by Alamar Blue assay in FRT cells; type: cell-based, rat; details: for cytotoxicity of 6k / 12: 10 μM, 8 h; for cytotoxicity at up to 100 μM: 1 or 24 h
[1] = system: CFTR activity at the ocular surface; assay: Ocular surface potential difference (PD) in living mice; type: in vivo, mouse; details: wild-type mice; for change in ocular surface PD, in words: 1-10 μM
Protocol: (§1) Open-circuit transepithelial PD were measured continuously in anesthetized mice in response to serial perfusions of different solutions over the ocular surface, as described (21). Mice were anesthetized with Avertin (2,2,2-tribromoethanol, 125 mg/kg intraperitoneal, Sigma-Aldrich, St. Louis, Mo., USA), and core temperature was maintained at 37° C. using a heating pad. Eyes were oriented with the cornea and conjunctiva facing upward and exposed by retracting the eyelid with cross-action forceps. Solutions were isosmolar (320±10 mOsM; compositions provided in ref. 21) and contained 10μ[…] Qindomethacin to prevent CFTR activation by prostaglandins. The ocular surface was perfused at 6 mL/min through plastic tubing using a multireservoir gravity pinch-valve system (ALA Scientific, Westbury, N.Y., USA) and variable-flow peristaltic pump (medium flow model; Fisher Scientific, Fair Lawn, N.J., USA). A probe catheter was fixed 1 mm above the cornea using a micropositioner and a suction cannula was positioned 3 mm from the orbit. The measuring electrode was in contact to the perfusion catheter and connected to a high-impedance voltmeter (IsoMilivolt Meter; WPI). The reference electrode was grounded via a winged 21-gauge needle filled with isosmolar saline, and inserted subcutaneously in the abdomen. Measuring and reference electrodes consisted of Ag/AgCl with 3 M KCl agar bridges.
An open-circuit potential difference (PD) method developed in our lab was used to evaluate compound activity at the ocular surface in vivo, as depicted in FIG. 3A (21). Cl^− channel function was quantified by measuring PD during continuous perfusion of the ocular surface with a series of solutions that imposed a transepithelial Cl^− gradient and contained various channel agonists and/or inhibitors. The ocular surface was first perfused with isosmolar saline to record the baseline PD. Amiloride was then added to the perfusate, followed by exchange to a low Cl^− solution in which Cl^− with an impermeant anion, gluconate. These maneuvers allow for direct visualization of CFTR activation in response to addition of candidate CFTR activators.
as §1, with “Ocular surface potential difference measurements. Open-circuit” for “Open-circuit”, “indomethacin” for “Qindomethacin”, “Measuring and reference electrodes consisted of Ag/AgCl with 3 M KCl agar bridges.” left out

mice = assay: Tear secretion / tear volume in mice (phenol red thread); type: in vivo, mouse; details: for duration of increased tear secretion / increase in tear fluid secretion / tear secretion, in words: single topical dose, wild-type mice; for tear secretion / tear volume in CF mice: CF mice lacking functional CFTR
Protocol: (§2) To measure unstimulated tear production, phenol red threads (Zone-Quick, Oasis Medical, Glendora, Calif., USA) were placed for 10 s in the lateral canthi of isofluorane-anesthetized mice using jewelers' forceps. Tear volume was measured as the length of thread wetting, as visualized under a dissecting microscope. Serial measurements were used to evaluate compound pharmacodynamics after application of 2-μL drops of compound formulations (50-100 μM compound in PBS containing 0.5% polysorbate and 0.5% DMSO) comparing to vehicle.
as §2, with “Tear secretion. To” for “To”, “2-[…]L” for “2-μL”
Tear volume. Tear volume was measured using phenol red threads (Zone-Quick, Oasis Medical, Glendora, Calif.) as described. Threads were placed for 10 s in the lateral canthi of isofluorane-anesthetized mice using jewelers' forceps. Tear volume was determined from the length of thread wetting as visualized under a dissecting microscope. Serial measurements were done to evaluate compound pharmacodynamics after topical application of a single, 2.5-μL drop of ophthalmic formulation containing 0-100 μM of 1 or 12 in Ringer's solution with 0.3% carboxymethylcellulose (high viscosity, VWR, Radnor, Pa.), 0.015% benzalkonium chloride preservative, and 1% DMSO. Both eyes in each mouse received the same treatment to control for potential contralateral effects of a given treatment.

Structure (SMILES)	cytotoxicity of 6k / 12 (FRT cells)	change in ocular surface PD, in words [1]	duration of increased tear secretion (mice)	increase in tear fluid secretion (mice)	cytotoxicity at up to 100 μM (FRT cells)	tear secretion / tear volume in CF mice (mice)	tear secretion, in words (mice)	further results
CCN(CC)c1nc(Nc2ccc3ncsc3c2)nc(OC(C(F)(F)F)C(F)(F)F)n1 [6k, N′-(1,3-Benzothiazol-6-yl)-N,N-diethyl-6-[(1,1,1,3,3,3-hexafluoropropan-2-yl)oxy]-1,3,5-triazine-2,4-diamine]	did not produce significant toxicity	–	–	–	–	–	–	–
Nc1ccc([N+](=O)[O-])cc1-c1nc2ccccc2n(Cc2ccccc2)c1=O [CFTRact-J027, 3-(2-amino-5-nitrophenyl)-1-benzylquinoxalin-2(1H)-one]	–	large hyperpolarizations	at least four	approximately two-fold	no appreciable in vitro cytotoxicity	–	–	cytotoxicity at 20 μM (FRT cells; 20 μM): did not show cytotoxicity; cytotoxicity at 25 μM (FRT cells; 25 μM): did not show significant in vitro cytotoxicity; non-cytotoxic concentration relative to EC50 for CFTR activation (FRT cells; 25 μM): > 100 fold
CCN(CC)c1nc(Nc2ccccc2)nc(OC(C(F)(F)F)C(F)(F)F)n1 [CFTRact-K089, N,N-Diethyl-6-[(1,1,1,3,3,3-hexafluoropropan-2-yl)oxy]-N′-phenyl-1,3,5-triazine-2,4-diamine]	–	large hyperpolarizations	four and at least four	approximately two-fold	no appreciable in vitro cytotoxicity	no effect	doubled basal tear secretion	hyperpolarization in ocular surface potential difference [1]: ~8.5 mV
CC(C)(C)c1cc(C(C)(C)C)c(NC(=O)c2c[nH]c3ccccc3c2=O)cc1O [VX-770, reference compound]	–	minimal changes in ocular surface PD	–	–	–	–	little tear secretion	–
CNc1nc(Nc2ccccc2)nc(OCC(F)(F)C(F)F)n1 [compound 12, N-methyl-N′-phenyl-6-(2,2,3,3-tetrafluoropropoxy)-1,3,5-triazine-2,4-diamine]	non-toxic; also recorded: did not produce significant toxicity	–	–	–	–	without effect; also recorded: did not increase tear volume	–	duration of sustained effect on tear volume (mice; 25 pmol, single dose): 8 h; duration of sustained increase in tear volume (mice; 100 μM (250 pmol), single dose): 8 h; time of return of tear volume to baseline (mice; 100 μM (250 pmol), single dose): 12 to 24 h; time of maximal tear volume (mice; doses down to 25 pmol): 1 to 3 h; duration of sustained in vivo efficacy (mice; mice): at least 8 hours; lowest dose with similar activity on tear volume (mice; single-dose dose-response): 25 pmol

— US11230535B2, “CFTR regulators and methods of use thereof” (THE REGENTS OF THE UNIVERSITY OF CALIFORNIA, priority 2015, dated 2022)
